# Results: patent US20250059220A1, “SUBSTITUTED BENZOTHIOPHENE DERIVATIVES AND METHODS OF USE THEREOF” (Merck Sharp & Dohme LLC, priority 2021, published 2025)
# Legend:
# [1] = target: human PTPN1 (1-435) (Homo sapiens (Human), UniProt P18031); test: Human PTPN1 Biochemical Assay; conditions: DiFMUP substrate, read-out: PTP1B IC50
# Description: Human PTPN1 Biochemical Assay
# Test compounds were dissolved in DMSO, and 10-point serial 3-fold dilution series in DMSO were prepared in Echo Qualified 384-well Polypropylene Microplates (Labcyte, San Jose, CA) (top concentration 50 µM). […] 5 μl of assay buffer was added into the low control. The plate was incubated for 30 minutes at room temperature. Subsequently, 5 μl of 100 µM DiFMUP (6,8-difluoro-4-methylumbelliferyl phosphate) solution (prepared in assay buffer from 10 mM stock in DMSO) was added to the assay plate and incubated for 1 hour at room temperature. For detection, assay plates were read on SpectraMax Microplate Reader (Molecular Devices), with Excitation wavelength=360 nm and Emission wavelength=460 nm. […] Calculated % effects were fit using a 4-parameter algorithm, and EC50 was reported.
# [2] = target: human PTPN2 (1-387) (Homo sapiens (Human), UniProt P17706); test: Human PTPN2 Biochemical Assay; conditions: DiFMUP substrate
# human PTPN2 (1-387), sequence (P17706 other isoform, or with tags, fused parts or gaps): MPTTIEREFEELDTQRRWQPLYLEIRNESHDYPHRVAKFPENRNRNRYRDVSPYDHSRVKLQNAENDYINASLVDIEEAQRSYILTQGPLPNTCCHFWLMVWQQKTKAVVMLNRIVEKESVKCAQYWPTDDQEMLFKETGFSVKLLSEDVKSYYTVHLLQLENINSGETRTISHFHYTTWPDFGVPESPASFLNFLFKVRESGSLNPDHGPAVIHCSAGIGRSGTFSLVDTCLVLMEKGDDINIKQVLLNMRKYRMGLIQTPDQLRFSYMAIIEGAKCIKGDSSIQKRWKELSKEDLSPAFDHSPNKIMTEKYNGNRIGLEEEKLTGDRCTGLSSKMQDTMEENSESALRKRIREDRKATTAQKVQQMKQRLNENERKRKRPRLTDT
# Description: Human PTPN2 Biochemical Assay
# Test compounds were dissolved in DMSO, and 10-point serial 3-fold dilution series in DMSO were prepared in Echo Qualified 384-well Polypropylene Microplates (Labcyte, San Jose, CA) (top concentration 50 µM). Assay plates (384-well low volume black plates; Corning #3820, Corning, NY) were prepared by dispensing 50 nL of test compound, and DMSO (for high and low controls) by ECHO acoustic dispenser (Labcyte, San Jose CA). This was followed by addition of 5 μL of 0.2 nM human PTPN2 (1-387) solution (prepared in the assay buffer, 50 mM Tris pH 7.4, 150 mM NaCl, 0.01% Tween20, 0.5 mM dithiothreitol) to all wells except the low control. 5 μl of assay buffer was added into the low control, then the plate was incubated for 30 minutes at room temperature. Subsequently, 5 μl of 100 µM DiFMUP (6,8-difluoro-4-methylumbelliferyl phosphate) solution (prepared in assay buffer from 10 mM stock in DMSO) was added to the assay plate and incubated for 1 hour at room temperature. For detection, assay plates were read on SpectraMax Microplate Reader (Molecular Devices), with Excitation wavelength=360 nm and Emission wavelength=460 nm. Test compound effects were normalized to the window defined by the controls, DMSO/buffer, and DMSO/50 pM human PTPN2. Calculated % effects were fit using a 4-parameter algorithm, and EC50 was reported.
# human PTPN1 (1-435), sequence (P18031 whole entry): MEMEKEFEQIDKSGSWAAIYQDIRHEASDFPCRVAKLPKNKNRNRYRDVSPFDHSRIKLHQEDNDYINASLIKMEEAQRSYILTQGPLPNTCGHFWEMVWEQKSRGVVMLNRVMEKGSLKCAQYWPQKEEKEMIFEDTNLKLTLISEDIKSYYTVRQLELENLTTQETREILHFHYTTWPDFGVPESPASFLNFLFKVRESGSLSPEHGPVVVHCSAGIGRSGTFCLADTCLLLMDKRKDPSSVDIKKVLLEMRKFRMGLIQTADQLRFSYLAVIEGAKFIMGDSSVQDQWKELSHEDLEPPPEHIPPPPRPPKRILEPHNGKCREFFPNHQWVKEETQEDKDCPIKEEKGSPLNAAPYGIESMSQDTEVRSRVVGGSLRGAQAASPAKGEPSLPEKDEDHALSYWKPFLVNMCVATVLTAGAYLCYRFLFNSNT
IC50 [1],IC50 [2],SMILES
160 nM,88.6 nM,NC(=O)c1cc(OCc2ccc(F)cc2C(F)(F)F)c2sc(C(F)(F)P(=O)(O)O)c(Br)c2c1 [Compound 336]
68.4 nM,47.9 nM,N#CCCCCCCOc1cc(C(N)=O)cc2c(Br)c(C(F)(F)P(=O)(O)O)sc12 [Compound 243]
3860 nM,4030 nM,COCCOc1cc(C)ccc1NC(=O)c1ccc2sc(C(F)(F)P(=O)(O)O)c(Br)c2c1 [Compound 107]
7550 nM,8430 nM,"O=C(Nc1ccccc1)c1ccc2sc(C(F)(F)P(=O)(O)O)c(Cl)c2c1 [Compound 215, ((3-chloro-5-(phenylcarbamoyl)benzo[b]thiophen-2-yl)difluoromethyl)phosphonic acid]"
2140 nM,2730 nM,O=C(NC(c1ccc(F)cc1)C(F)F)c1ccc2sc(C(F)(F)P(=O)(O)O)c(Br)c2c1 (stereo not drawn) [Compound 117]
20.5 nM,15.9 nM,NC(=O)c1cc(OCc2ccc(F)c(F)c2)c2sc(C(F)(F)P(=O)(O)O)c(Br)c2c1 [Compound 356]
5230 nM,6520 nM,COCCCNC(=O)c1ccc2sc(C(F)(F)P(=O)(O)O)c(Br)c2c1 [Compound 125]
140 nM,38.5 nM,NC(=O)c1cc(OCc2ccc(-n3cncn3)cc2)c2sc(C(F)(F)P(=O)(O)O)c(Br)c2c1 [Compound 353]
4080 nM,3620 nM,O=C(Nc1ccccc1OC1CCOCC1)c1ccc2sc(C(F)(F)P(=O)(O)O)c(Br)c2c1 [Compound 108]
5910 nM,6170 nM,Cc1cc(C)n(-c2ccccc2NC(=O)c2ccc3sc(C(F)(F)P(=O)(O)O)c(Br)c3c2)n1 [Compound 118]
4570 nM,4730 nM,CC1CCCC(NC(=O)c2ccc3sc(C(F)(F)P(=O)(O)O)c(Br)c3c2)C1 (stereo not drawn) [Compound 98]
94.2 nM,54.4 nM,NC(=O)c1cc(OCc2cc(F)cc(C(F)(F)F)c2)c2sc(C(F)(F)P(=O)(O)O)c(Br)c2c1 [Compound 247]
1630 nM,2010 nM,N#Cc1ccc2c(c1)CC(NC(=O)c1ccc3sc(C(F)(F)P(=O)(O)O)c(Br)c3c1)C2 (stereo not drawn) [Compound 83]
3680 nM,2910 nM,COCC(NC(=O)c1ccc2sc(C(F)(F)P(=O)(O)O)c(Br)c2c1)c1ccc(F)cc1 (stereo not drawn) [Compound 112]
1110 nM,1350 nM,O=C(NCc1nnc2n1CCC2)c1ccc2sc(C(F)(F)P(=O)(O)O)c(Br)c2c1 [Compound 51]
2650 nM,3490 nM,N#CC1CCC(NC(=O)c2ccc3sc(C(F)(F)P(=O)(O)O)c(Br)c3c2)C1 (stereo not drawn) [Compound 37]
1610 nM,3010 nM,"O=C(Nc1ccccc1)c1ccc2sc(C(F)(F)P(=O)(O)O)c(Br)c2c1 [Compound 1, ((3-bromo-5-(phenylcarbamoyl)benzo[b]thiophen-2-yl)difluoromethyl)phosphonic acid]"
2.6 nM,2.5 nM,CS(=O)(=O)CCCOc1cc(-c2cnn[nH]2)cc2c(Br)c(C(F)(F)P(=O)(O)O)sc12 [Compound 364]
5140 nM,5780 nM,CCC(NC(=O)c1ccc2sc(C(F)(F)P(=O)(O)O)c(Br)c2c1)c1nccs1 (stereo not drawn) [Compound 105]
45.3 nM,24.4 nM,NC(=O)c1cc(OCc2ccc(OC(F)(F)F)cc2)c2sc(C(F)(F)P(=O)(O)O)c(Br)c2c1 [Compound 339]
4080 nM,5170 nM,COCCCCNC(=O)c1ccc2sc(C(F)(F)P(=O)(O)O)c(Br)c2c1 [Compound 45]
97 nM,231 nM,NC(=O)c1cc(OC[C@@H]2CC[C@H]2C(F)(F)F)c2sc(C(F)(F)P(=O)(O)O)c(Br)c2c1 [Compound 279]
2230 nM,2640 nM,Cc1c[nH]c(CNC(=O)c2ccc3sc(C(F)(F)P(=O)(O)O)c(Br)c3c2)c(C)c1=O [Compound 129]

IC50 [1],IC50 [2],SMILES
16 nM,45.3 nM,NC(=O)c1cc(OCC2C3CC4C(C3)C24)c2sc(C(F)(F)P(=O)(O)O)c(Br)c2c1 (stereo not drawn) [Compound 287]
1920 nM,1900 nM,O=C(NCc1cncc(F)c1)c1ccc2sc(C(F)(F)P(=O)(O)O)c(Br)c2c1 [Compound 135]
213 nM,69 nM,NC(=O)c1cc(OCc2ccc(C3CC3)cc2Cl)c2sc(C(F)(F)P(=O)(O)O)c(Br)c2c1 [Compound 399]
27.4 nM,21.5 nM,Cc1c(C(F)(F)P(=O)(O)O)sc2c(OCc3ccc(S(C)(=O)=O)cc3)cc(C(N)=O)cc12 [Compound 438]
40.3 nM,24.5 nM,"CS(=O)(=O)CCCOc1cc(C(N)=O)cc2c(C(F)F)c(C(F)(F)P(=O)(O)O)sc12 [Compound 454, ((5-carbamoyl-3-(difluoromethyl)-7-(3-(methylsulfonyl)propoxy)benzo[b]thiophen-2-yl)difluoromethyl)phosphonic acid]"
< 2.5 nM,< 2.5 nM,CS(=O)(=O)c1ccc(COc2cc(-c3cnn[nH]3)cc3c(Br)c(C(F)(F)P(=O)(O)O)sc23)cc1 [Compound 369]
79.1 nM,71.2 nM,NC(=O)c1cc(NCCCS(N)(=O)=O)c2sc(C(F)(F)P(=O)(O)O)c(Br)c2c1 [Compound 312]
3480 nM,4320 nM,O=C(Cc1cccnc1)Nc1ccc2sc(C(F)(F)P(=O)(O)O)c(Br)c2c1 [Compound 214]
7860 nM,9580 nM,"CS(=O)(=O)CCCOc1cc(C(N)=O)cc2cc(C(F)(F)P(=O)(O)O)sc12 [Compound 453, ammonium ((5-carbamoyl-7-(3-(methylsulfonyl)propoxy)benzo[b]thiophen-2-yl)difluoromethyl)phosphonate]"
59.5 nM,10.1 nM,NC(=O)c1cc(OCc2ccc(-c3ccncc3)cc2)c2sc(C(F)(F)P(=O)(O)O)c(Br)c2c1 [Compound 402]
7.5 nM,6.81 nM,CNC(=O)c1cc(OCCCS(N)(=O)=O)c2sc(C(F)(F)P(=O)(O)O)c(Br)c2c1 [Compound 320]
35.8 nM,15.1 nM,CS(=O)(=O)c1ccc(COc2cc(C(N)=O)cc3c(Br)c(C(F)(F)P(=O)(O)O)sc23)c(Cl)c1 [Compound 387]
2590 nM,6280 nM,O=C(NCCn1nncc1-c1ccccc1)c1ccc2sc(C(F)(F)P(=O)(O)O)c(Br)c2c1 [Compound 150]
2490 nM,3340 nM,COc1ccc(NC(=O)c2ccc3sc(C(F)(F)P(=O)(O)O)c(Br)c3c2)cc1 [Compound 29]
696 nM,511 nM,CN(C)CCNC(=O)c1cc(OCCCC(F)(F)F)c2sc(C(F)(F)P(=O)(O)O)c(Br)c2c1 [Compound 211]
146 nM,132 nM,NC(=O)c1cc(CCc2ccccc2)c2sc(C(F)(F)P(=O)(O)O)c(Br)c2c1 [Compound 313]
4330 nM,5090 nM,O=C(N[C@@H]1[C@@H]2COC[C@@H]21)c1ccc2sc(C(F)(F)P(=O)(O)O)c(Br)c2c1 [Compound 57]
663 nM,581 nM,N#Cc1c(C(F)(F)P(=O)(O)O)sc2ccc(C(=O)NCc3cccnn3)cc12 [Compound 172]
6120 nM,7380 nM,Cc1nn(C)c(C)c1CNC(=O)c1ccc2sc(C(F)(F)P(=O)(O)O)c(Br)c2c1 [Compound 124]
4900 nM,6530 nM,Cc1noc(C)c1CCNC(=O)c1ccc2sc(C(F)(F)P(=O)(O)O)c(Br)c2c1 [Compound 43]
27.6 nM,32 nM,NC(=O)c1cc(OC[C@H]2C[C@@H](S(N)(=O)=O)C2)c2sc(C(F)(F)P(=O)(O)O)c(Br)c2c1 [Compound 382]
92.3 nM,79.6 nM,NC(=O)c1cc(OCc2cccc(C(F)(F)F)c2)c2sc(C(F)(F)P(=O)(O)O)c(Br)c2c1 [Compound 383]

SMILES,IC50 [1],IC50 [2]
O=C(NCc1cnsn1)c1ccc2sc(C(F)(F)P(=O)(O)O)c(Br)c2c1 [Compound 188],714 nM,1410 nM
"O=P(O)(O)C(F)(F)c1sc2c(OCCCC(F)(F)F)cc(-c3c[nH]cn3)cc2c1Br [Compound 416, ((3-bromo-5-(1H-imidazol-4-yl)-7-(4,4,4-trifluorobutoxy)benzo[b]thiophen-2-yl)difluoromethyl)phosphonic acid]",137 nM,92 nM
"O=C(NCc1cccnn1)c1cc(OCCCC(F)(F)F)c2sc(C(F)(F)P(=O)(O)O)c(Br)c2c1 [Compound 10, ((3-bromo-5-((pyridazin-3-ylmethyl)carbamoyl)-7-(4,4,4-trifluorobutoxy)benzo[b]thiophen-2-yl)difluoromethyl)phosphonic acid]",4.61 nM,5.79 nM
